#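 Growth conditions: 96-well plates. Treatment: test compound, 48 hours, 5 concentrations. Analysis: linear interpolation between bracketing concentrations; unreached endpoints set to highest concentration. GI50 = concentration required for 50% inhibition of growth. TGI is the concentration that stops growth completely.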
# System: SK-MEL-2 melanoma
# Test: inhibition of tumour cell growth, NCI panel, 48 h
SMILES,TGI [µM],GI50 [µM]
O=C1OC(c2ccco2)=N/C1=C\c1cccc([N+](=O)[O-])c1,> 100,
Nc1ncn(C2CC(O)C(CO)O2)c(=O)n1 (stereo unspecified),232,
COc1ccc(CNc2nc3cc(C(F)(F)F)ccc3nc2C)cc1OC,70.1,
N#CCc1ccc(C(C#N)/C(CCCC(=O)Nc2cccc([N+](=O)[O-])c2)=N/NC(N)=S)cc1 (stereo unspecified),> 100,
COc1cc2c3c(n(C)c(=O)c2cc1OC)-c1cc2c(cc1/C3=C\CNCCCN)OCO2,,2.33
O=C(/C=C\n1cnc(-c2cc(C(F)(F)F)cc(C(F)(F)F)c2)n1)NNc1cnccn1,2.84,0.0729
COc1ccc(-c2nnc(COc3ccc(NC(=O)Nc4ccc(Cl)c(C(F)(F)F)c4)cc3F)o2)cc1,9.87,3.61
CCN(CC)CCCC(C)Nc1cnc(C(=O)Nc2cccc3ccc(OC)nc23)cn1 (stereo unspecified),3.68,1.85
N#C/C(=C\c1cc2ccccc2c2ccccc12)c1ccccc1,15.4,
COC(=O)C12C3C4C1C1C2C3C41NC(=O)c1csc([C@@H](C[C@H](C(C)C)N(C)C(=O)[C@@H](NC(=O)[C@H]2CCCCN2C)C2CC2)OC(C)=O)n1 (stereo partly specified),> 33.3,0.11
CS(=O)(=O)c1cc(=O)c2ccccc2s1,30.4,
CSc1nc2cc(S(=O)(=O)N3CCCCC3)ccc2s1,> 100,
Nc1nc(-c2cccc(Cl)c2)c(-c2ccc3ncccc3n2)s1,> 25,> 25
Cc1ccc2c(c1)CN(C(=O)CCC(=O)OCc1ccccc1)c1ccc(C)cc1CN2C(=O)CCC(=O)OCc1ccccc1,> 100,
O=c1[nH]c(=O)n(C2OC(CO)C(O)C(O)C2O)cc1F (stereo unspecified),> 100,
c1cc[c]([Pb]([c]2ccccc2)[c]2ccccc2)cc1,24,6.04
CCCCN1CSC(=S)N(Cc2ccccc2)C1,> 100,

# System: M14 melanoma
# Test: inhibition of tumour cell growth, NCI panel, 48 h
SMILES,GI50 [µM],TGI [µM]
C=C1C(=O)O[C@H]2[C@H]1CC/C(COC(=O)c1cc3ccccc3s1)=C\CC[C@@]1(C)O[C@@H]21,1.75,4.24
Fc1ccc(-c2nn3ncccc3c2-c2ccnc(Nc3ccc4c(c3)OCCO4)n2)cc1,7.81,> 25
CC1(C)N=C(N)N=C(N)N1c1ccc(OCc2ccc(S(=O)(=O)F)c(Cl)c2)c(Cl)c1,1.52,> 100
CO[C@H]1C=C[C@@]23c4cc5c(cc4CO[C@]2(O)CN(C)[C@H]3C1)OCO5,,> 100
CC(C)N1CN(C(C(=O)N[C@@H]2C(=O)N3C2SC(C)(C)C3C(=O)O)c2ccccc2)CSC1=S (stereo partly specified),,> 100
COC(=O)c1c(C)[nH]c(/C=C2\N=C(c3ccc[nH]3)C=C2OC)c1C,0.209,0.619
COc1cc2c3c(n(CCCCOC(=O)C(Cl)(Cl)Cl)c(=O)c2cc1OC)-c1cc2c(cc1C3=O)OCO2,24.3,71.9
CCOC(=O)c1c(C)nc2c(c1N)/C(=C/c1ccc(OC)cc1)C(=O)N2Cc1ccc(F)cc1,0.191,0.443
CCCCOC(=O)NC(=O)c1cn(C2CCCCC2)c(=O)[nH]c1=O,,> 100
COc1cc(NS(=O)(=O)c2ccc(-c3cnc(C4CC4)o3)cc2)ccc1F,0.269,14.8
COc1ccccc1Cn1cc2c(c1-c1ccccc1)CCc1cnoc1-2,2.06,17.3
COc1cc2c(c(OC)c1OC)C(=O)[C@@H]1c3ccc([N+](=O)[O-])cc3C(=O)N(CCCBr)[C@H]21,12.1,33.5
O=C1OC(c2ccco2)=N/C1=C\c1cccc([N+](=O)[O-])c1,,> 100
Nc1ncn(C2CC(O)C(CO)O2)c(=O)n1 (stereo unspecified),,> 375
COc1ccc(CNc2nc3cc(C(F)(F)F)ccc3nc2C)cc1OC,,44.6
N#CCc1ccc(C(C#N)/C(CCCC(=O)Nc2cccc([N+](=O)[O-])c2)=N/NC(N)=S)cc1 (stereo unspecified),,> 100
COc1cc2c3c(n(C)c(=O)c2cc1OC)-c1cc2c(cc1/C3=C\CNCCCN)OCO2,0.585,5.31
O=C(/C=C\n1cnc(-c2cc(C(F)(F)F)cc(C(F)(F)F)c2)n1)NNc1cnccn1,0.311,9.04
COc1ccc(-c2nnc(COc3ccc(NC(=O)Nc4ccc(Cl)c(C(F)(F)F)c4)cc3F)o2)cc1,3.13,16.5
CCN(CC)CCCC(C)Nc1cnc(C(=O)Nc2cccc3ccc(OC)nc23)cn1 (stereo unspecified),1.93,3.71

# From PubChem BioAssay (NCI)
